From ChEMBL document CHEMBL1201862, “PubChem BioAssay data set” (2004)
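In this assay, cells in 96-well plates receive the compound at five concentrations for 48 hours. Endpoints are linearly interpolated between the surrounding concentrations. GI50 = concentration required for 50% inhibition of growth.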 Calls of active or inactive are those of the source. Cut-off read from the data, not from the text of the source: active = GI50 up to about 1.1 µM and inactive = higher.

Legend:
Assay in all cases: inhibition of tumour cell growth, NCI panel, 48 h
[1] = system: 786-0
[2] = system: A498
[3] = system: A549
[4] = system: ACHN
[5] = system: CAKI-1
[6] = system: CCRF-CEM
[7] = system: COLO 205
[8] = system: DLD-1
[9] = system: DMS-114
[10] = system: DMS-273
[11] = system: EKVX
[12] = system: HCC 2998
[13] = system: HCT-116
[14] = system: HL-60
[15] = system: HOP-18
[16] = system: HOP-62
[17] = system: HOP-92
[18] = system: HT-29
[19] = system: IGROV-1
[20] = system: K562
[21] = system: KM-20L2
[22] = system: KM12
[23] = system: LOX IMVI
[24] = system: LXFL 529
[25] = system: M14
[26] = system: M19-MEL
[27] = system: MOLT-4
[28] = system: Malme-3M
[29] = system: NCI-H226
[30] = system: NCI-H23
[31] = system: NCI-H460
[32] = system: NCI-H522
[33] = system: OVCAR-3
[34] = system: OVCAR-4
[35] = system: OVCAR-5
[36] = system: OVCAR-8
[37] = system: RPMI-8226
[38] = system: RXF 393
[39] = system: SF-268
[40] = system: SF-295
[41] = system: SF-539
[42] = system: SK-MEL-28
[43] = system: SK-OV-3
[44] = system: SN12C
[45] = system: SNB-19
[46] = system: SNB-75
[47] = system: SNB-78
[48] = system: SR
[49] = system: SW-620
[50] = system: TK-10
[51] = system: U-251
[52] = system: UACC-257
[53] = system: UACC-62
[54] = system: UO-31
[55] = system: XF498
[56] = system: HCT-15
[57] = system: SK-MEL-2
[58] = system: SK-MEL-5

CN1C(=O)CC(CC(=O)C2CCCCC2=O)CC1=O (centres undefined)
GI50 [1]: > 100 µM (inactive)
GI50 [2]: > 100 µM (inactive)
GI50 [3]: > 100 µM (inactive)
GI50 [4]: > 100 µM (inactive)
GI50 [5]: > 100 µM (inactive)
GI50 [6]: > 100 µM (inactive)
GI50 [7]: > 100 µM (inactive)
GI50 [8]: > 100 µM (inactive)
GI50 [9]: > 100 µM (inactive)
GI50 [10]: > 100 µM (inactive)
GI50 [11]: > 100 µM (inactive)
GI50 [12]: > 100 µM (inactive)
GI50 [13]: > 100 µM (inactive)
GI50 [14]: > 100 µM (inactive)
GI50 [15]: > 100 µM (inactive)
GI50 [16]: > 100 µM (inactive)
GI50 [17]: > 100 µM (inactive)
GI50 [18]: > 100 µM (inactive)
GI50 [19]: > 100 µM (inactive)
GI50 [20]: > 100 µM (inactive)
GI50 [21]: > 100 µM (inactive)
GI50 [22]: > 100 µM (inactive)
GI50 [23]: > 100 µM (inactive)
GI50 [24]: > 100 µM (inactive)
GI50 [25]: > 100 µM (inactive)
GI50 [26]: > 100 µM (inactive)
GI50 [27]: > 100 µM (inactive)
GI50 [28]: > 100 µM (inactive)
GI50 [29]: > 100 µM (inactive)
GI50 [30]: > 100 µM (inactive)
GI50 [31]: > 100 µM (inactive)
GI50 [32]: > 100 µM (inactive)
GI50 [33]: > 100 µM (inactive)
GI50 [34]: > 100 µM (inactive)
GI50 [35]: > 100 µM (inactive)
GI50 [36]: > 100 µM (inactive)
GI50 [37]: > 100 µM (inactive)
GI50 [38]: > 100 µM (inactive)
GI50 [39]: > 100 µM (inactive)
GI50 [40]: > 100 µM (inactive)
GI50 [41]: > 100 µM (inactive)
GI50 [42]: > 100 µM (inactive)
GI50 [43]: > 100 µM (inactive)
GI50 [44]: > 100 µM (inactive)
GI50 [45]: > 100 µM (inactive)
GI50 [46]: > 100 µM (inactive)
GI50 [47]: > 100 µM (inactive)
GI50 [48]: > 100 µM (inactive)
GI50 [49]: > 100 µM (inactive)
GI50 [50]: > 100 µM (inactive)
GI50 [51]: > 100 µM (inactive)
GI50 [52]: > 100 µM (inactive)
GI50 [53]: > 100 µM (inactive)
GI50 [54]: > 100 µM (inactive)
GI50 [55]: > 100 µM (inactive)

O=C(CN(c1ccccc1)c1ccccc1)N1c2ccccc2C2C=CC=CC21 (centres undefined)
GI50 [1]: 22.6 µM (inactive)
GI50 [2]: 32.4 µM (inactive)
GI50 [3]: 23.8 µM (inactive)
GI50 [4]: 24 µM (inactive)
GI50 [5]: 18.3 µM (inactive)
GI50 [6]: 9.42 µM (inactive)
GI50 [7]: 11 µM (inactive)
GI50 [8]: 25.6 µM (inactive)
GI50 [9]: 7.38 µM (inactive)
GI50 [10]: 22 µM (inactive)
GI50 [11]: 24.3 µM (inactive)
GI50 [13]: 13.8 µM (inactive)
GI50 [56]: 16.7 µM
GI50 [14]: 7.23 µM (inactive)
GI50 [15]: 25.6 µM (inactive)
GI50 [16]: 20.1 µM (inactive)
GI50 [18]: 22.2 µM (inactive)
GI50 [19]: 21.3 µM (inactive)
GI50 [20]: 14.3 µM (inactive)
GI50 [21]: 24.2 µM (inactive)
GI50 [22]: 27.3 µM (inactive)
GI50 [23]: 18.2 µM (inactive)
GI50 [24]: 16 µM (inactive)
GI50 [25]: 25.6 µM (inactive)
GI50 [26]: 21.5 µM (inactive)
GI50 [27]: 8.05 µM (inactive)
GI50 [28]: 21.6 µM (inactive)
GI50 [29]: 18.5 µM (inactive)
GI50 [30]: 23.2 µM (inactive)
GI50 [31]: 19.3 µM (inactive)
GI50 [32]: 18 µM (inactive)
GI50 [33]: 17.4 µM (inactive)
GI50 [34]: 11.1 µM (inactive)
GI50 [35]: 24 µM (inactive)
GI50 [36]: 20.7 µM (inactive)
GI50 [37]: 8.22 µM (inactive)
GI50 [38]: 30.5 µM (inactive)
GI50 [39]: 26.5 µM (inactive)
GI50 [40]: 24.5 µM (inactive)
GI50 [41]: 18.8 µM (inactive)
GI50 [42]: 30.4 µM (inactive)
GI50 [57]: 18.1 µM (inactive)
GI50 [58]: 15.6 µM (inactive)
GI50 [43]: 23.6 µM (inactive)
GI50 [44]: 8.34 µM (inactive)
GI50 [45]: 17.5 µM (inactive)
GI50 [46]: 18.1 µM (inactive)
GI50 [47]: 36.8 µM (inactive)
GI50 [48]: 0.579 µM (active)
GI50 [49]: 23.7 µM (inactive)
GI50 [50]: 24.3 µM (inactive)
GI50 [51]: 21.3 µM (inactive)
GI50 [52]: 18.3 µM (inactive)
GI50 [53]: 21.1 µM (inactive)
GI50 [54]: 30.1 µM (inactive)
GI50 [55]: 19.6 µM (inactive)

COc1cc2c3c(c1OC)C1(C=CC(=O)C=C1)CC3N(C(=O)OC(C)(C)C(Cl)(Cl)Cl)CC2 (centres undefined)
GI50 [1]: 14.2 µM (inactive)
GI50 [2]: 16.7 µM (inactive)
GI50 [3]: 10.5 µM (inactive)
GI50 [5]: 14.9 µM (inactive)
GI50 [6]: 7.73 µM (inactive)
GI50 [7]: 12.4 µM (inactive)
GI50 [8]: 8.45 µM (inactive)
GI50 [9]: 7.55 µM (inactive)
GI50 [10]: 9.38 µM (inactive)
GI50 [11]: 16.8 µM (inactive)
GI50 [13]: 6.25 µM (inactive)
GI50 [56]: 7.52 µM
GI50 [14]: 1.95 µM (inactive)
GI50 [15]: 22.8 µM (inactive)
GI50 [16]: 17.6 µM (inactive)
GI50 [17]: 14.4 µM (inactive)
GI50 [18]: 8.53 µM (inactive)
GI50 [19]: 16.6 µM (inactive)
GI50 [20]: 4.68 µM (inactive)
GI50 [21]: 11.4 µM (inactive)
GI50 [22]: 9.2 µM (inactive)
GI50 [23]: 10.1 µM (inactive)
GI50 [24]: 8.85 µM (inactive)
GI50 [25]: 14.5 µM (inactive)
GI50 [26]: 10.8 µM (inactive)
GI50 [27]: 2.97 µM (inactive)
GI50 [28]: 14.2 µM (inactive)
GI50 [29]: 15.9 µM (inactive)
GI50 [30]: 16.4 µM (inactive)
GI50 [31]: 14.5 µM (inactive)
GI50 [32]: 8.93 µM (inactive)
GI50 [33]: 7.66 µM (inactive)
GI50 [34]: 12.5 µM (inactive)
GI50 [35]: 2.52 µM (inactive)
GI50 [36]: 8.85 µM (inactive)
GI50 [37]: 2.23 µM (inactive)
GI50 [38]: 4.16 µM (inactive)
GI50 [39]: 13.1 µM (inactive)
GI50 [40]: 13.4 µM (inactive)
GI50 [41]: 15.7 µM (inactive)
GI50 [57]: 11 µM (inactive)
GI50 [58]: 6.87 µM (inactive)
GI50 [43]: 26.2 µM (inactive)
GI50 [44]: 11.6 µM (inactive)
GI50 [45]: 14.9 µM (inactive)
GI50 [46]: 15.1 µM (inactive)
GI50 [47]: 14.4 µM (inactive)
GI50 [48]: 3.5 µM (inactive)
GI50 [49]: 18.3 µM (inactive)
GI50 [50]: 43.2 µM (inactive)
GI50 [51]: 10.5 µM (inactive)
GI50 [52]: 10.4 µM (inactive)
GI50 [53]: 13.1 µM (inactive)
GI50 [54]: 14.5 µM (inactive)
GI50 [55]: 8.69 µM (inactive)

O=C1C2=C(CCC2)Nc2cccc3ncn1c23
GI50 [1]: > 100 µM (inactive)
GI50 [3]: 33.7 µM (inactive)
GI50 [4]: 33.2 µM (inactive)
GI50 [6]: > 100 µM (inactive)
GI50 [7]: 43.4 µM (inactive)
GI50 [8]: 51.9 µM (inactive)
GI50 [9]: > 100 µM (inactive)
GI50 [10]: > 100 µM (inactive)
GI50 [11]: > 100 µM (inactive)
GI50 [12]: > 100 µM (inactive)
GI50 [13]: 34 µM (inactive)
GI50 [56]: 48.1 µM
GI50 [14]: 15 µM (inactive)
GI50 [15]: 10.6 µM (inactive)
GI50 [19]: > 100 µM (inactive)
GI50 [20]: > 100 µM (inactive)
GI50 [21]: 41.9 µM (inactive)
GI50 [22]: 28.8 µM (inactive)
GI50 [23]: 24.5 µM (inactive)
GI50 [24]: > 100 µM (inactive)
GI50 [26]: > 100 µM (inactive)
GI50 [27]: > 100 µM (inactive)
GI50 [28]: > 100 µM (inactive)
GI50 [30]: 51.6 µM (inactive)
GI50 [31]: 33.7 µM (inactive)
GI50 [32]: 69.7 µM (inactive)
GI50 [35]: 15.9 µM (inactive)
GI50 [36]: > 100 µM (inactive)
GI50 [37]: > 100 µM (inactive)
GI50 [38]: 96.4 µM (inactive)
GI50 [39]: > 100 µM (inactive)
GI50 [40]: > 100 µM (inactive)
GI50 [41]: > 100 µM (inactive)
GI50 [42]: 61.9 µM (inactive)
GI50 [57]: 56.5 µM (inactive)
GI50 [58]: 69.5 µM (inactive)
GI50 [43]: 73.5 µM (inactive)
GI50 [44]: 55.1 µM (inactive)
GI50 [45]: > 100 µM (inactive)
GI50 [47]: > 100 µM (inactive)
GI50 [48]: > 100 µM (inactive)
GI50 [49]: 70.1 µM (inactive)
GI50 [50]: 14.7 µM (inactive)
GI50 [51]: > 100 µM (inactive)
GI50 [52]: 64.7 µM (inactive)
GI50 [53]: 40.1 µM (inactive)
GI50 [54]: > 100 µM (inactive)
GI50 [55]: 34.8 µM (inactive)
